The source made the active and inactive calls. No cut-off for these calls is given here.
How the values were obtained:
[1] = target: Nuclear factor NF-kappa-B complex (Homo sapiens) (UniProt Q00653+P19838+Q04206); assay: Inhibition of NFkappaB (unknown origin); type: protein-complex assay
[2] = target: Dual specificity mitogen-activated protein kinase kinase 1 (Homo sapiens, UniProt Q02750); assay: Inhibition of MEK1 (unknown origin) using ERK2 as substrate after 40 mins by ELISA
Dual specificity mitogen-activated protein kinase kinase 1, sequence (Q02750 whole entry): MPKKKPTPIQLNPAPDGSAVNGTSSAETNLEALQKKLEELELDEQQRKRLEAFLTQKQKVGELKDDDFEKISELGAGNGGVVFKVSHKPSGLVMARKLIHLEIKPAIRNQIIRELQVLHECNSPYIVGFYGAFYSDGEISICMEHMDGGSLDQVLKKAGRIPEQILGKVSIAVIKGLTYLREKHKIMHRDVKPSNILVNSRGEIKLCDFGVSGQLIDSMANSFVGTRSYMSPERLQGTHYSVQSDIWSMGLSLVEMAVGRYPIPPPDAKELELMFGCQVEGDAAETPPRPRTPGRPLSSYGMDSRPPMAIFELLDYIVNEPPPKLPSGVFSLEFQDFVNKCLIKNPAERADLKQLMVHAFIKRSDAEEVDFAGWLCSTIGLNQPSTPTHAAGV

Nuclear factor NF-kappa-B complex (Homo sapiens), sequence (P19838 whole entry, looked up): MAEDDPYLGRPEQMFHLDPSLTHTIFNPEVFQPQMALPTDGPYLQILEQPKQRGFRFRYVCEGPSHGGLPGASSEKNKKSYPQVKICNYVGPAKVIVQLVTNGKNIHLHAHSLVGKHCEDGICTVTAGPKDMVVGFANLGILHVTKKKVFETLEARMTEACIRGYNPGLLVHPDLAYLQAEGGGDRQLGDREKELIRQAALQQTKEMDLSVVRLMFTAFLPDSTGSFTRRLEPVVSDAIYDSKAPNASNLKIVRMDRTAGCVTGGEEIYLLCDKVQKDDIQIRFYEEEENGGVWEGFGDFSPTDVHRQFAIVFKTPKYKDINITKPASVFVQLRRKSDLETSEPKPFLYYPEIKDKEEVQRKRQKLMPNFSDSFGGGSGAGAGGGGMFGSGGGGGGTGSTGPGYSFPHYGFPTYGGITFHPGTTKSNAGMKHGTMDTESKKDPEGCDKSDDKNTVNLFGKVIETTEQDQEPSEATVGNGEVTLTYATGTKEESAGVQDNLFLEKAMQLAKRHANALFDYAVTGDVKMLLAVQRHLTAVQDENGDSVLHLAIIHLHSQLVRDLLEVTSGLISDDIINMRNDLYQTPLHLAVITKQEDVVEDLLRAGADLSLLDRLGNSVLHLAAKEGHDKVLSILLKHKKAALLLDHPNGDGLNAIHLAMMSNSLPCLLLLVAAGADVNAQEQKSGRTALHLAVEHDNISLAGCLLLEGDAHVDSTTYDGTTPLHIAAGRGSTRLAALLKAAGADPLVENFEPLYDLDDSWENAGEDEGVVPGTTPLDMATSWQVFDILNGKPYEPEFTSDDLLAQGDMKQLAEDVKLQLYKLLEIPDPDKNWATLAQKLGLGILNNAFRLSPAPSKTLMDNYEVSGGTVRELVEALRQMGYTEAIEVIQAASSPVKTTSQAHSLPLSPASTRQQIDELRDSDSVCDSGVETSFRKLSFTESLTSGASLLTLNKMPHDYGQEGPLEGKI
Nuclear factor NF-kappa-B complex (Homo sapiens), sequence (Q00653 whole entry, looked up): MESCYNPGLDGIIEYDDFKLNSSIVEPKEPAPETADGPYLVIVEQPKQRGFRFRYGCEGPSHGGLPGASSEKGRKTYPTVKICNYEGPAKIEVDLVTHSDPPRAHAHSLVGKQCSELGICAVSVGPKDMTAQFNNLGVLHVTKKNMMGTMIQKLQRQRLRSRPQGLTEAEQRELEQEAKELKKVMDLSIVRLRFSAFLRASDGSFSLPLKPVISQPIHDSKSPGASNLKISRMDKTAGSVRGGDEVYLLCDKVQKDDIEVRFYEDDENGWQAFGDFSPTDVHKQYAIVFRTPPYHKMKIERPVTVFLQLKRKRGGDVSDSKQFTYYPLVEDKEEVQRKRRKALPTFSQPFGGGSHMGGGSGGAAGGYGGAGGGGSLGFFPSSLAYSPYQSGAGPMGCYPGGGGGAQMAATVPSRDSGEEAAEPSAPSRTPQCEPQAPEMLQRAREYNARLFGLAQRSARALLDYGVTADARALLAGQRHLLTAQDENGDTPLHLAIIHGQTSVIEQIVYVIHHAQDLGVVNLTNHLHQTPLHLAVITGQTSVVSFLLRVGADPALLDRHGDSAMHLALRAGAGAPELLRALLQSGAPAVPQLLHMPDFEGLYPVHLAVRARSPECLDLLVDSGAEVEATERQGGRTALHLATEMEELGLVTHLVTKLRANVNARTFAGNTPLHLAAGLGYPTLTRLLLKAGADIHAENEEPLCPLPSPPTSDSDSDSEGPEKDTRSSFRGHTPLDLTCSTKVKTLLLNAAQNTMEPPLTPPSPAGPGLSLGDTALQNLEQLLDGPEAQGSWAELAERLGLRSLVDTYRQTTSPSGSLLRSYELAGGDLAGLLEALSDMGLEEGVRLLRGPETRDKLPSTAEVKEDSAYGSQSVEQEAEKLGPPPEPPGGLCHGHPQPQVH
Nuclear factor NF-kappa-B complex (Homo sapiens), sequence (Q04206 whole entry, looked up): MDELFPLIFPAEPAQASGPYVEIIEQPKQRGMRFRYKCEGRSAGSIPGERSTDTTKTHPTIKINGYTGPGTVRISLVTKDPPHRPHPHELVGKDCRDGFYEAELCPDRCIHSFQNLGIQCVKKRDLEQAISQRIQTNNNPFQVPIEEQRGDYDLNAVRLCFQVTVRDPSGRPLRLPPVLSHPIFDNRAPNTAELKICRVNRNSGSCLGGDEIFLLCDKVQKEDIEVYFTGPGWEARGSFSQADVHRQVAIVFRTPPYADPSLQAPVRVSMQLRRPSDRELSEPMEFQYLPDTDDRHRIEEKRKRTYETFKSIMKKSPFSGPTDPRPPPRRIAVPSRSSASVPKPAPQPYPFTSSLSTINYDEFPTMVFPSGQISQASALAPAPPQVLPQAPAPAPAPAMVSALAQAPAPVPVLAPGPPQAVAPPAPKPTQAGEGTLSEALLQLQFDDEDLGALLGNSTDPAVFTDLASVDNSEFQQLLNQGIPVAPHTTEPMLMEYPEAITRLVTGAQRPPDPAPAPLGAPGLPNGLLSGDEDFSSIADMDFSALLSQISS

Compound | inhibition [1] | IC50 [2] [nM]
C[C@@H]1/C=C\C(=O)[C@@H](O)[C@@H](O)C/C=C/c2cc(NCCN3CCCC3)cc(O)c2C(=O)O[C@H]1C | Active | 356 to 640
C[C@@H]1/C=C\C(=O)[C@@H](O)[C@@H](O)C/C=C/c2cc(N(CCNCC(O)CO)C(=O)OC(C)(C)C)cc(O)c2C(=O)O[C@H]1C (some centres undefined) | Active | 
C[C@@H]1/C=C\C(=O)[C@@H](O)[C@@H](O)C/C=C/c2cc(N3CCNC3=O)cc(O)c2C(=O)O[C@H]1C | Active | 484
C[C@@H]1/C=C\C(=O)[C@@H](O)[C@@H](O)C/C=C/c2cc(NOC[C@H](O)CO)cc(O)c2C(=O)O[C@H]1C | Active | 187
C[C@@H]1/C=C\C(=O)[C@@H](O)[C@@H](O)C/C=C/c2cc(NCC3CCNCC3)cc(O)c2C(=O)O[C@H]1C | Active | 356
CCNc1cc(O)c2c(c1)C#CC[C@H](O)[C@H](O)C(=O)/C=C\[C@@H](C)[C@H](C)OC2=O | Active | 182
C[C@@H]1/C=C\C(=O)[C@@H](O)[C@@H](O)C/C=C/c2cc(NCCNCC(O)CO)cc(O)c2C(=O)O[C@H]1C (some centres undefined) | Active | 658
CCNc1cc(O)c2c(c1)/C=C/C[C@H](O)[C@@H](O)C(=O)/C=C/[C@@H](C)[C@H](C)OC2=O | Active | 
C[C@@H]1/C=C\C(=O)[C@@H](O)[C@@H](O)C/C=C/c2cc(N3CCOC3=O)cc(O)c2C(=O)O[C@H]1C | Active | 187
C[C@@H]1/C=C\C(=O)[C@@H](O)[C@@H](O)C/C=C/c2cc(NCCN3CCOCC3)cc(O)c2C(=O)O[C@H]1C | Active | 91 to 101
COCCOCCOCCNCNc1cc(O)c2c(c1)/C=C/C[C@H](O)[C@H](O)C(=O)/C=C\[C@@H](C)[C@H](C)OC2=O | Active | 756
C[C@@H]1/C=C\C(=O)[C@@H](O)[C@@H](O)C/C=C/c2cc(NCCN3CCN(C)CC3)cc(O)c2C(=O)O[C@H]1C | Active | 471 to 946
C[C@@H]1/C=C\C(=O)[C@@H](O)[C@@H](O)C/C=C/c2cc(CCCn3ccnc3)cc(O)c2C(=O)O[C@H]1C | Active | 9.5 to 37

Further lines, results first:

inhibition [1] | IC50 [2] [nM] | Compound
Active |  | CNc1cc(O)c2c(c1)/C=C/C[C@H](O)[C@@H](O)C(=O)/C=C\[C@@H](C)[C@H](C)OC2=O
Active |  | CNc1cc(O)c2c(c1)/C=C/C[C@H](O)[C@@H](O)C(=O)/C=C/[C@@H](C)[C@H](C)OC2=O
Active | 846 | C[C@@H]1/C=C\C(=O)[C@@H](O)[C@@H](O)C/C=C/c2cc(NCCNCCO)cc(O)c2C(=O)O[C@H]1C
Active | 657 | CNC(=O)CNc1cc(O)c2c(c1)/C=C/C[C@H](O)[C@H](O)C(=O)/C=C\[C@@H](C)[C@H](C)OC2=O
Active | 79 | CCNc1cc(O)c2c(c1)/C=C/C[C@H](OC(=O)C(F)(F)F)[C@@H](O)C(=O)/C=C\[C@@H](C)[C@H](C)OC2=O
Active | 145 | CCNc1cc(O)c2c(c1)/C=C/C[C@@H]1OC(=O)O[C@@H]1C(=O)/C=C\[C@@H](C)[C@H](C)OC2=O
Active | 56 to 101 | C[C@@H]1/C=C\C(=O)[C@@H](O)[C@@H](O)C/C=C/c2cc(NCC(O)CO)cc(O)c2C(=O)O[C@H]1C (some centres undefined)
Active | > 330 | C[C@@H]1/C=C\C(=O)[C@@H](O)[C@@H](O)C/C=C/c2cc(NOCC(=O)O)cc(O)c2C(=O)O[C@H]1C
Active | 99 to 310 | C[C@@H]1/C=C\C(=O)[C@@H](O)[C@@H](O)C/C=C/c2cc(NCC(N)=O)cc(O)c2C(=O)O[C@H]1C
Active | 91 to 198 | C[C@@H]1/C=C\C(=O)[C@@H](O)[C@@H](O)C/C=C/c2cc(NCCO)cc(O)c2C(=O)O[C@H]1C
Active | > 330 | C[C@@H]1/C=C\C(=O)[C@@H](O)[C@@H](O)C/C=C/c2cc(NCCOP(=O)(O)O)cc(O)c2C(=O)O[C@H]1C
Active | 120 | C[C@@H]1/C=C\C(=O)[C@@H](O)[C@@H](O)C/C=C/c2cc(NCCn3ccnc3)cc(O)c2C(=O)O[C@H]1C
Active | 318 | C[C@@H]1/C=C\C(=O)[C@@H](O)[C@@H](O)C/C=C/c2cc(NCC(=O)N(C)C)cc(O)c2C(=O)O[C@H]1C
Active | 657 | C[C@@H]1/C=C\C(=O)[C@@H](O)[C@@H](O)C/C=C/c2cc(NC3CC3)cc(O)c2C(=O)O[C@H]1C
Active | 172 | COCCNc1cc(O)c2c(c1)/C=C/C[C@H](O)[C@H](O)C(=O)/C=C\[C@@H](C)[C@H](C)OC2=O
Active | 366 | C[C@@H]1/C=C\C(=O)[C@@H](O)[C@@H](O)C/C=C/c2cc(NCC(=O)O)cc(O)c2C(=O)O[C@H]1C

From ChEMBL document CHEMBL3880411, “Multikinase inhibitors for use in the treatment of cancer” (2009)
